Data on two substances can be found in patent publication US20260285918A1, “PEPTIDE FOR INHIBITING PROTEIN AGGREGATION AND PROTECTING PROTEIN ACTIVITY” (GWANGJU INSTITUTE OF SCIENCE AND TECHNOLOGY, priority 2023, published 2026).

Data set [1] concerns LDH (Lactate dehydrogenase). The data set can be described thus: LDH activity protection with temperature and time (storage). The class given is biochemical. The following applies: mass ratio 1:50. Here is the method: CAHS motif 1 124-142, a stabilizer provided by the present invention, was mixed with LDH (lactate dehydrogenase), a target protein candidate for activity protection experiments, at a mass ratio of 1:50. The LDH protein activity was tested under various temperature and time conditions to determine the degree of protein activity protection.
Specifically, LDH protein activity was tested at temperatures of −20° C., 20° C., and 37° C., and at time intervals of 0, 1, 2, and 4 weeks.

Data set [2] relates to LDH (Lactate dehydrogenase). Description: Inhibition of LDH aggregation (absorption at 340 nm, light scattering) after dehydration-rehydration and freeze-thaw. An excerpt:
In other words, protein aggregation is the main cause of loss of protein activity. Protein aggregation is induced during the process of freezing and thawing (freeze and thaw) or in a water-free environment (dehydration), which causes loss of protein activity.

Data set [3] has as its system LDH (Lactate dehydrogenase). Description: LDH activity protection after dehydration-rehydration and freeze-thaw. The data set is classed as biochemical. The following applies: for LDH activity protection rate: motif added at up to 1/10 of the BSA amount. An excerpt: Specifically, as illustrated in FIG. 6(c), considering the charge, hydrophobicity, and hydrophilicity of each amino acid in the CAHS motif 1 124-142 sequence, Y (Tyr), Q (Gln), E (Glu), V (Val), R (Arg), and L (Leu) in the amino acid sequence of CAHS motif 1, represented by SEQ ID NO: 2, were each mutated to alanine at one site.

Data set [4] in a line: Solubility comparison after dialysis. The data set is classed as physicochemical. Conditions: 100 μM, dialysed at 4° C. for 18 hours in 20 mM potassium phosphate, 150 mM NaCl, pH 7.0. Here is the method:
First, CAHS motif 1 124-142 was obtained via peptide synthesis. CAHS motif 1 124-142 and the entire CAHS protein 1-229 were each dialysed at 4° C. for 18 hours in a buffer containing 20 mM potassium phosphate, 150 mM NaCl, pH 7.0, at a concentration of 100 μM, to compare their solubility.

With “CAHS motif 1 124-142: 19-mer peptide, positions 124 to 142 of the CAHS protein, YRKQQEVEADKIRKELEKQ, obtained via peptide synthesis”, the “LDH activity preservation on storage” value in data set [1] (20° C., 1 to 4 weeks) was “well preserved”; in data set [1] (37° C., 1 to 4 weeks) it was “well preserved”; in data set [1] (all conditions: −20° C., 20° C., 37° C., 0, 1, 2, 4 weeks) it was “effectively preserve protein activity under all temperature and time conditions”; in data set [1] (−20° C., 1 to 4 weeks) it was “well preserved”. The LDH aggregation result in data set [2] (dehydration-rehydration) is “reduced aggregation by more than half”; in data set [2] (freeze-thaw), “effectively inhibits the aggregation of LDH”. Moreover, the “LDH activity protection compared between excipients” value in data set [3] is reported as “best protected the activity of the protein”. Besides, in data set [3], the “LDH activity protection rate” value is reported as 70-100%. Besides, the solubility result in data set [4] is recorded as “excellent solubility in water”.
With “Bovine Serum Albumin [BSA, reference compound]”, the LDH aggregation result in data set [2] (dehydration-rehydration) is listed as “barely prevented aggregation”. Besides, in data set [3], the “LDH activity protection rate” value was 50-60%.
